Data: US10293004B2, “Butyrate-producing bacterium and use thereof” (KABUSHIKI KAISHA YAKULT HONSHA, priority 2014, dated 2019)

Legend:
[1] = Evaluation of ability to produce butyrate from indigestible saccharides (Example 3)
From the text: Galactooligosaccharide (GOS), maltitol, D-mannitol, lactitol, isomalt, isomaltulose, L-sorbose and D-sorbitol were used as indigestible saccharides. These indigestible saccharides used, except for GOS, were reagent grade. GOS used was commercially available Oligomate 55N (Yakult Pharmaceutical Industry Co., Ltd.) from which monosaccharide and lactose fractions (fractions digestible and absorbable by the upper gastrointestinal tract) had been removed using an activated carbon column. Specifically, a saccharide solution diluted with purified water was added to a column packed with activated carbon (manufactured by Wako Pure Chemical Industries, Ltd.) swollen in purified water, and the column was washed with a 2% ethanol solution, followed by the elution of an indigestible fraction with a 50% ethanol solution. The eluate was dried under reduced pressure, and the obtained GOS saccharide solution was used.
A. hadrus YIT 10092^T (DSM 3119^T), which is a type strain of A. hadrus (a typical human intestinal butyrate-producing bacterium), and two isolates were used.
Each of these bacterial strains was anaerobically cultured at 37° C. for 24 hours in a PYA medium containing 33 mM sodium acetate supplemented with 0.5% D-glucose (PYGA medium). The culture solution was inoculated at 1% to a PYA medium containing 0.5 (w/v) % of each indigestible saccharide (test medium), followed by anaerobic culture at 37° C. for 24 hours. After the completion of the culture, the organic acid concentration in the culture solution was analyzed by ion-exclusion HPLC. The analysis conditions were the same as those described above in Example 2. After the quantification of the organic acid concentration, the amount of butyrate produced from each indigestible saccharide and the ratio of butyrate to total short-chain fatty acids were calculated according to the following expressions. (Amount of butyrate produced)=(Amount of butyrate in the test medium after culture)−(Amount of butyrate in a PYA medium without each indigestible saccharide after culture) (Ratio of butyrate)=(Amount of butyrate in the test medium after culture)/((Amount of acetate+Amount of propionate+Amount of butyrate) in the test medium after culture)×100 (Expression 3)

[2] = Turbidity (OD660) after anaerobic culture of bacterial strains in PYGA, PYSA or PYXA medium
Experimental: (§1) A frozen stock solution of each bacterial strain (a 10% (w/v) skim milk-2% sodium glutamate solution in which bacterial cells were suspended) (cell count: 2.0 to 5.5×10^10 cells/mL) was thawed, and the solution was inoculated at 1% to 4 mL of a PY liquid medium supplemented with 33 mM sodium acetate and 0.5 (w/v) % glucose (PYGA medium), followed by anaerobic culture at 37° C. for 24 hours. After the culture, the culture solution was inoculated at 1% to a fresh PYGA medium, followed by anaerobic culture at 37° C. for 24 hours. After the culture, the turbidity (OD660) of the culture solution was measured. Then, the culture solution was inoculated at 1% to a PY medium containing 0.5 (w/v) % L-sorbose or D-xylitol and 33 mM sodium acetate (the medium containing L-sorbose: PYSA, and the medium containing D-xylitol: PYXA), followed by anaerobic culture at 37° C. for 24 hours. Then, the turbidity (OD660) was measured.

[3] = Production of butyrate by each bacterial strain from L-sorbose and D-xylitol (ion-exclusion HPLC); conditions: 24 hours, minus PYA blank
Experimental: as §1
After the completion of the culture, the organic acid concentration in the culture solution was quantified by ion-exclusion HPLC. In this operation, a culture solution in a PY medium supplemented with sodium acetate but without L-sorbose or D-xylitol (PYA medium) was used as a blank.
(HPLC Analysis Conditions) • Eluent: 15 mM perchloric acid-7% acetonitrile • pH adjuster: 15 mM perchloric acid-60 mM • tris(hydroxymethyl)aminomethane-7% acetonitrile • Separation column: Organic acid analysis column RSpak KC- • 811×2 (manufactured by Showa Denko K.K.) • Column temperature: 42° C. • Injected sample volume: 10 μL • Flow rate: 1.0 mL/min • Analysis time: 35 min • Detector: Waters 432 electric conductivity detector • Cell temperature: 45° C.
The amount of butyrate produced was calculated according to (Expression 1). Amount of butyrate produced=(Amount of butyrate produced by culture for 24 hours in a PYSA or PYXA medium)−(Amount of butyrate produced by culture for 24 hours in a PYA medium) (Expression 1)

mouse fresh feces = experiment: Relationship between increase in cell count of YIT 12355 and butyrate concentration in mouse feces culture system
Experimental: 0.8 g of mouse fresh feces obtained 1 week after the start of the single dose test of Example 6 was collected into a sample tube and the tube was transferred into a glove box with the low-temperature and anaerobic state maintained. The feces were diluted with PBS anaerobically substituted in advance (final dilution: 12.5-fold), and a maltitol solution (final concentration: 0.5%) and/or a cultured bacterial solution of YIT 12355 (1% inoculated) was added thereto, followed by anaerobic culture at 37° C. for 24 hours. After the culture, the butyrate concentration was measured by ion-exclusion HPLC using an electric conductivity detector.

With “A. hadrus (Eubacterium hadrum) YIT 12355 (NITE BP-01832)” the “ability to utilize indigestible saccharides” value ([1]; PYA medium with 0.5 (w/v) % of each indigestible saccharide, versus type strain, FIGS. 3 and 4) was “more than the type strain YIT 10092^T”, the “Amount of butyrate produced” value ([1]; from indigestible saccharides, versus type strain, FIG. 3) was “larger” and the “ratio of butyrate to total short-chain fatty acids” value ([1]; versus type strain YIT 10092^T, FIG. 4) was “higher than that of the type strain YIT 10092^T”. For the same substance, the “Turbidity (OD660)” value ([2]; after anaerobic culture at 37° C. for 24 hours in PYGA liquid medium) was 3.55, the “Turbidity (OD660)” value ([2]; anaerobic culture at 37° C. for 24 hours of 1% inoculum in PYSA (L-sorbose)) was 2.39 and the “Turbidity (OD660)” value ([2]; anaerobic culture at 37° C. for 24 hours of 1% inoculum in PYXA (D-xylitol)) was 1.47. For the same substance, the “Amount of butyrate produced” value ([3]; D-Xylitol 0.5 (w/v) %, PYXA medium) was 31.9 mmol/L, the “Amount of butyrate produced” value ([3]; L-Sorbose 0.5 (w/v) %, PYSA medium) was 15.4 mmol/L and the “cell count of A. hadrus” value (mouse fresh feces) was “increased”. For the same substance, the butyrate concentration (mouse fresh feces; maltitol 0.5% and/or YIT 12355 1% inoculated, 37° C. 24 hours, FIG. 8) was “increased”.
